Measured values taken from US10221129B2, “Inhibitors of human immunodeficiency virus replication” (ViiV HEALTHCARE UK (NO.5) LIMITED, priority 2015, dated 2019).
Read-outs that look alike come from different tables or passages of the source.

Columns and labels:
[1] = test system: recombinant NL4-3 virus (nef section replaced with Renilla luciferase gene) in MT-2 cells; experiment: HIV cell culture assay (antiviral activity, luciferase readout); format: cell-based
Procedure: HIV cell culture assay—MT-2 cells, 293T cells and the proviral DNA clone of NL4-3 virus were obtained from the NIH AIDS Research and Reference Reagent Program. MT-2 cells were propagated in RPMI 1640 media supplemented with 10% heat inactivated fetal bovine serum (FBS), 100 jag/ml penicillin G and up to 100 units/mL streptomycin. The 293T cells were propagated in DMEM media supplemented with 10% heat inactivated FBS, 100 μg/mL penicillin G and 100 μg/mL streptomycin. A recombinant NL4-3 proviral clone, in which a section of the nef gene was replaced with the Renilla luciferase gene, was used to make the reference virus used in these studies. The recombinant virus was prepared through transfection of the recombinant NL4-3 proviral clone into 293T cells using Transit-293 Transfection Reagent from Mirus Bio LLC (Madison, Wis.). Supernatant was harvested after 2-3 days and the amount of virus present was titered in MT-2 cells using luciferase enzyme activity as a marker by measuring luciferase enzyme activity. Luciferase was quantitated using the EnduRen Live Cell Substrate from Promega (Madison, Wis.). Antiviral activities of compounds toward the recombinant virus were quantified by measuring luciferase activity in MT-2 cells infected for 4-5 days with the recombinant virus in the presence of serial dilutions of the compound.
(Johnson V A, Byington R T. Infectivity Assay. In Techniques in HIV Research. ed. Aldovini A, Walker B D. 71-76. New York: Stockton Press. 1990).

[2] = Compound cytotoxicity, XTT-based colorimetric assay; format: cell-based; details: human, uninfected MT2 cells, day 4, XTT
Procedure: Compound cytotoxicity and the corresponding CC50 values were determined using the same protocol as described in the antiviral assay except that uninfected cells were used. Cytotoxicity was assessed on day 4 in uninfected MT2 cells by using a XTT (2,3-bis[2-Methoxy-4-nitro-5-sulfophenyl]-2H-tetrazolium-5-carboxyanilide inner salt)-based colorimetric assay (Sigma-Aldrich, St Louis, Mo.).

[3] = Renilla, NL43, MT-2 cells infected for 4-5 days with recombinant NL4-3 Renilla luciferase virus
[4] = MT-2 cells infected for 4-5 days with recombinant NL4-3 Renilla luciferase virus

Compound: CN(C(=O)[C@H](Cc1cc(F)cc(F)c1)NC(=O)NS(=O)(=O)n1ncc2c(Cl)cccc21)c1ccc2scnc2c1 [ZY-19]
- EC50 [1, 3]: 0.36 µM
- CC50 at 4 days [2]: > 33.3 µM

Compound: COc1ccc(N(C)C(=O)[C@H](Cc2ccccc2)NC(=O)NS(=O)(=O)N2CCc3c(Cl)cccc32)cc1 [CA-1]
- EC50 [1, 3]: 0.25 µM
- CC50 at 4 days [2]: 21.4 µM

Compound: COc1ccc(N(C)C(=O)[C@H](Cc2ccccc2)NC(=O)NS(=O)(=O)n2c(C)cc3cc(F)c(O)cc32)cc1 [CA-65]
- EC50 [1, 3]: 4.04 µM
- CC50 at 4 days [2]: > 100 µM

Compound: CC1Cc2cccnc2N1S(=O)(=O)NC(=O)N[C@@H](Cc1cc(F)cc(F)c1)C(=O)N(C)c1ccc2scnc2c1 (single isomer, unassigned) [VN-6]
- EC50 [1, 4]: 0.02 µM
- CC50 at 4 day [2]: > 1 µM

Compound: COc1ccc(N(C)C(=O)[C@H](Cc2ccccc2)NC(=O)NS(=O)(=O)N2CCCCC2c2ccccc2)cc1 (stereo partly shown) [JB-53]
- EC50 [1, 3]: 1.1 µM
- CC50 at 4 days [2]: 85.5 µM

Compound: CN(C(=O)[C@H](Cc1cc(F)cc(F)c1)NC(=O)NS(=O)(=O)Nc1ccccn1)c1ccc2scnc2c1 [CA-114]
- EC50 [1, 3]: 0.1 µM
- CC50 at 4 days [2]: > 100 µM

Compound: Cc1cc(N(C)C(=O)[C@H](Cc2cc(F)cc(F)c2)NC(=O)NS(=O)(=O)N2CCc3cccnc32)ccc1F [BB-17]
- EC50 [1, 3]: 0.07 µM
- CC50 at 4 days [2]: 91.2 µM

Compound: COc1ccc(N(C)C(=O)[C@H](Cc2ccccc2)NC(=O)NS(=O)(=O)NCc2ccccc2)cc1 [JB-56]
- EC50 [1, 3]: 1.87 µM
- CC50 at 4 days [2]: > 100 µM

Compound: CN(C(=O)[C@H](Cc1cc(F)cc(F)c1)NC(=O)NS(=O)(=O)n1ccc2nccnc21)c1ccc2scnc2c1 [ZY-18]
- EC50 [1, 3]: 0.15 µM
- CC50 at 4 days [2]: > 100 µM

Compound: COc1ccccc1NS(=O)(=O)NC(=O)N[C@@H](Cc1ccccc1)C(=O)N(C)c1ccc2ncccc2c1 [JB-12]
- EC50 [1, 3]: 0.17 µM
- CC50 at 4 days [2]: 57.7 µM

Compound: COc1ccc(N(C)C(=O)[C@H](Cc2ccccc2)NC(=O)NS(=O)(=O)Nc2cc(C)cc(C)c2)cc1 [CA-14]
- EC50 [1, 3]: 0.12 µM
- CC50 at 4 days [2]: > 33.3 µM

Compound: COc1ccc(N(C)C(=O)[C@H](Cc2ccccc2)NC(=O)NS(=O)(=O)N2CCCCC2)cc1 [JB-14]
- EC50 [1, 3]: 0.69 µM
- CC50 at 4 days [2]: > 100 µM

Compound: CN(C(=O)[C@H](Cc1cc(F)cc(F)c1)NC(=O)NS(=O)(=O)N1CCC(c2ccccc2)C1)c1ccc2scnc2c1 (mixture of isomers) [CA-152]
- EC50 [1, 3]: 0.55 µM
- CC50 at 4 days [2]: > 100 µM

Compound: CCOc1ccc(N(CC)C(=O)[C@H](Cc2ccccc2)NC(=O)NS(=O)(=O)N2CCc3c(Cl)cccc32)cc1 [JB-72]
- EC50 [1, 3]: 0.18 µM
- CC50 at 4 days [2]: > 33.3 µM

Compound: CC(=O)NCCNS(=O)(=O)NC(=O)N[C@@H](Cc1cc(F)cc(F)c1)C(=O)N(C)c1ccc2scnc2c1 [CA-137]
- EC50 [1, 3]: 1.22 µM
- CC50 at 4 days [2]: > 100 µM

Compound: COc1ccc(N(C)C(=O)[C@H](Cc2ccccc2)NC(=O)NS(=O)(=O)n2ccc3ccncc32)cc1 [CA-61]
- EC50 [1, 3]: 0.4 µM
- CC50 at 4 days [2]: > 100 µM

Compound: CN(C(=O)[C@H](Cc1cc(F)cc(F)c1)NC(=O)NS(=O)(=O)NCCc1ccccc1)c1ccc2scnc2c1 [CA-158]
- EC50 [1, 3]: 0.34 µM
- CC50 at 4 days [2]: > 100 µM

Compound: CN(C(=O)[C@H](Cc1cc(F)cc(F)c1)NC(=O)NS(=O)(=O)N1CCc2cccnc21)c1ccc2c(cnn2C)c1 [GW-8]
- EC50 [1, 3]: 0.1 µM
- CC50 at 4 days [2]: > 25 µM

Compound: COc1ccc(N(C)C(=O)[C@H](Cc2ccccc2)NC(=O)NS(=O)(=O)NCc2ccc3nc(C)[nH]c3c2)cc1 [JB-54]
- EC50 [1, 3]: 12 µM
- CC50 at 4 days [2]: > 100 µM

Compound: CC(C)CN(C)S(=O)(=O)NC(=O)N[C@@H](Cc1cc(F)cc(F)c1)C(=O)N(C)c1ccc2scnc2c1 [CA-140]
- EC50 [1, 3]: 0.04 µM
- CC50 at 4 days [2]: > 100 µM

Compound: COc1ccc2c(n1)N(S(=O)(=O)NC(=O)N[C@@H](Cc1cc(F)cc(F)c1)C(=O)N(C)c1ccc3scnc3c1)CC2 [AW-2]
- EC50 [1, 3]: 0.01 µM
- CC50 at 4 days [2]: > 100 µM

Compound: COc1ccc(N(C)C(=O)[C@H](Cc2ccccc2)NC(=O)NS(=O)(=O)Nc2cccc(OC(F)(F)F)c2)cc1 [CA-35]
- EC50 [1, 3]: 0.38 µM
- CC50 at 4 days [2]: 30.3 µM

Compound: CN(C(=O)[C@H](Cc1cc(F)cc(F)c1)NC(=O)NS(=O)(=O)N1CC(C)(O)C1)c1ccc2scnc2c1 [CA-129]
- EC50 [1, 3]: 0.14 µM
- CC50 at 4 days [2]: > 100 µM

Compound: CN(C(=O)[C@H](Cc1cc(F)cc(F)c1)NC(=O)NS(=O)(=O)N1CCc2cc(Br)cnc21)c1ccc2scnc2c1 [ZY-21]
- EC50 [1, 3]: 0.49 µM
- CC50 at 4 days [2]: > 100 µM

Compound: COc1ccc(NS(=O)(=O)NC(=O)N[C@@H](Cc2ccccc2)C(=O)N(C)c2ccc(OC)cc2)cc1 [JB-27]
- EC50 [1, 3]: 0.15 µM
- CC50 at 4 days [2]: > 100 µM

Compound: COc1ccc(N(C)C(=O)[C@H](Cc2cc(F)cc(F)c2)NC(=O)NS(=O)(=O)N2CCc3cccnc32)cn1 [GW-11]
- EC50 [1, 3]: 0.09 µM
- CC50 at 4 days [2]: > 100 µM

Compound: Cc1cc(N(C)C(=O)[C@H](Cc2cc(F)cc(F)c2)NC(=O)NS(=O)(=O)N2CCc3cccnc32)cnc1C [GW-20]
- EC50 [1, 3]: 0.23 µM
- CC50 at 4 days [2]: > 100 µM

Compound: COc1ccc(N(C)C(=O)[C@H](Cc2ccccc2)NC(=O)NS(=O)(=O)Nc2nccc3ccccc23)cc1 [JB-32]
- EC50 [1, 3]: 1.45 µM
- CC50 at 4 days [2]: > 100 µM

Compound: COc1ccc(N(C)C(=O)[C@H](Cc2ccccc2)NC(=O)NS(=O)(=O)N(C)c2cccc(Cl)c2)cc1 [JB-37]
- EC50 [1, 3]: 0.06 µM
- CC50 at 4 days [2]: > 100 µM

Compound: CN(C(=O)[C@H](Cc1cc(F)cc(F)c1)NC(=O)NS(=O)(=O)N1CC[C@H](O)C1)c1ccc2scnc2c1 [VN-26]
- EC50 [1, 3]: 0.11 µM
- CC50 at 4 days [2]: 20 µM

Compound: COc1ccc(N(C)C(=O)[C@H](Cc2ccccc2)NC(=O)NS(=O)(=O)Nc2cc(Cl)ccc2F)cc1 [JB-49]
- EC50 [1, 3]: 0.2 µM
- CC50 at 4 days [2]: > 100 µM

Compound: CN(C(=O)[C@H](Cc1cc(F)cc(F)c1)NC(=O)NS(=O)(=O)NCc1cccnc1)c1ccc2scnc2c1 [CA-135]
- EC50 [1, 3]: 1.53 µM
- CC50 at 4 days [2]: > 100 µM

Compound: COc1ccc(N(C)C(=O)[C@H](Cc2ccccc2)NC(=O)NS(=O)(=O)Nc2cc(F)cc(F)c2)cc1 [JB-46]
- EC50 [1, 3]: 0.08 µM
- CC50 at 4 days [2]: > 100 µM

Compound: CN(C(=O)[C@H](Cc1cc(F)cc(F)c1)NC(=O)NS(=O)(=O)N1CCc2cccnc21)c1ccc(=O)n(C)c1 [BB-1]
- EC50 [1, 3]: 11 µM
- CC50 at 4 days [2]: > 100 µM

Compound: CN(C(=O)[C@H](Cc1cc(F)cc(F)c1)NC(=O)NS(=O)(=O)N1CCCc2ccccc21)c1ccc2scnc2c1 [VN-5]
- EC50 [1, 3]: 0.04 µM
- CC50 at 4 days [2]: 95.9 µM

Compound: COc1ccc(N(C)C(=O)[C@H](Cc2ccccc2)NC(=O)NS(=O)(=O)Nc2ccc(Cl)c(Cl)c2)cc1 [CA-12]
- EC50 [1, 3]: 0.09 µM
- CC50 at 4 days [2]: > 33.3 µM

Compound: COc1ccc(N(C)C(=O)[C@H](Cc2cc(F)cc(F)c2)NC(=O)NS(=O)(=O)N2CCc3ccncc32)cc1 [BB-10]
- EC50 [1, 3]: 1.08 µM
- CC50 at 4 days [2]: > 100 µM

Compound: CN(C(=O)[C@H](Cc1cc(F)cc(F)c1)NC(=O)NS(=O)(=O)N1CCCC1c1ccccn1)c1ccc2scnc2c1 (single isomer, unassigned) [VN-1]
- EC50 [1, 4]: 2.48 µM
- CC50 at 4 days [2]: > 100 µM

Compound: COc1ccc(N(C)C(=O)[C@H](Cc2ccccc2)NC(=O)NS(=O)(=O)NCc2n[nH]c3ccccc23)cc1 [JB-67]
- EC50 ([1]; MT-2 cells infected for 4-5 days with recombinant NL4-3 Renilla luciferase virus, read-out: EC50): 0.18 µM

Compound: CN(C(=O)[C@H](Cc1ccccc1)NC(=O)NS(=O)(=O)N1CCc2cccnc21)c1ccc2scnc2c1 [ZY-2]
- EC50 [1, 3]: 0.05 µM
- CC50 at 4 days [2]: > 53 µM

Compound: COc1ccc(N(C)C(=O)[C@H](Cc2cc(F)cc(F)c2)NC(=O)NS(=O)(=O)N2CCc3c(Cl)ccnc32)cc1 [BB-4]
- EC50 [1, 3]: 0.42 µM
- CC50 at 4 days [2]: 61.9 µM

Compound: CC1CN(S(=O)(=O)NC(=O)N[C@@H](Cc2cc(F)cc(F)c2)C(=O)N(C)c2ccc3scnc3c2)c2ncccc21 (single isomer, unassigned) [VN-14]
- CC50 at 4 days [2]: > 100 µM
